The values that follow come from US9745506B2, “Treatment fluids for use in removing acid-soluble materials in subterranean formations” (Halliburton Energy Services, Inc., priority 2015, dated 2017).

The conditions of data set [1]: cited from earlier work.
The next data set in a line: solubility of PMIDA. Type of data set: physicochemical. The settings on record: room temperature. The source says:
The solubility of the PMIDA in the MSA and the ability of both the MSA and the PMIDA to remove acid-soluble materials of the present disclosure synergistically operate to continuously remove acid-soluble materials at deeper far-field locations than traditional acid fluids, which may become spent prior to reaching such deep areas.
In the working temperature range of the treatment fluid, as described above, the PMIDA may be solubilized in the MSA of the treatment fluids described herein. In some embodiments, the PMIDA is about 5% w/v soluble at room temperature in a solution of about 70% MSA in an aqueous base fluid, described below. In other embodiments, higher w/v concentrations of PMIDA may be prepared using varied solutions of MSA alone or in combination with an aqueous base fluid, which will undergo different dissolution amounts depending on the working temperature of the treatment fluid. Each of these values is critical to the embodiments described herein and may depend on a number of factors including, but not limited to, the working temperature of the treatment fluid (e.g., the temperature or temperature range of the subterranean formation being treated), the amount of MSA in the treatment fluid relative to the PMIDA, the amount of PMIDA in the treatment fluid relative to the MSA, and the like.

For data set [2] the following is noted: 25° C.; cited from earlier work.

Where two headings read alike, the source gives them in different places. Where only a bound is given, the exact number is not on record here.

Usually pKa stands for the pH at which an ionisable group is half protonated. Turning to methanesulfonic acid [MSA], the pKa result in data set [1] (25° C. in dimethyl sulfoxide) is listed as “about 1.6”; in data set [1] (25° C. in water), −1.9.

Take `O=C(O)CN(CC(=O)O)CP(=O)(O)O` [PMIDA, N-(phosphonomethyl)iminodiacetic acid]: in “solubility of PMIDA”, the “soluble in a solution of about 70% MSA in an aqueous base fluid” value is listed as “about 5 % w/v”. The solubility in water in data set [2] was less than 500 µg/mL.
